According to ChEMBL document CHEMBL3217446, “Selenosemicarbazones as potent cruzipain inhibitors and their antiparasitic properties against Trypanosoma cruzi” (Medchemcomm, 2012):
Active and inactive are the calls of the source. No cut-off for these calls is given here.

Experiments:
[1] = molecular target: Cruzipain (Trypanosoma cruzi) (UniProt P25779); experiment: Inhibition of Trypanosoma cruzi cruzipain using Z-Phe-Arg-AMC as substrate at 2 uM incubated for 5 mins prior to substrate addition measured after 10 mins by fluorescence assay
Sequence of Cruzipain (Trypanosoma cruzi) (P25779 123-467 limits assumed): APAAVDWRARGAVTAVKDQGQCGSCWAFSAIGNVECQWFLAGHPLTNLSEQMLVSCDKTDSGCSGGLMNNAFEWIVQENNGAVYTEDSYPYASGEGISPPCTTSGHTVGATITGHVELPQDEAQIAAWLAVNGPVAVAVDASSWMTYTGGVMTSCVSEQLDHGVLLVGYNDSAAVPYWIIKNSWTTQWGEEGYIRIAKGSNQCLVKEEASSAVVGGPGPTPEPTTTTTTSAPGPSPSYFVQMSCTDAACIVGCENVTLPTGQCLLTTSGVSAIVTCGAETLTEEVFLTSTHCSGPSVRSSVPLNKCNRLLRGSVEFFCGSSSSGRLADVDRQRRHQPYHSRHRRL

[2] = molecular target: Cruzipain (Trypanosoma cruzi) (UniProt P25779); experiment: Inhibition of Trypanosoma cruzi cruzipain using Z-Phe-Arg-AMC as substrate at 0.3 uM incubated for 5 mins prior to substrate addition measured after 10 mins by fluorescence assay
[3] = Selectivity index, ratio of CC50 for African green monkey Vero cells to IC50 for epimastigote stage of Trypanosoma cruzi Dm28c; format: functional
Trypanosoma cruzi [4] = experiment: Antitrypanosomal activity against epimastigote stage of Trypanosoma cruzi Dm28c infected in African green monkey Vero cells after 72 hrs relative to untreated control; format: functional, organism-based
[5] = molecular target: Cruzipain (Trypanosoma cruzi) (UniProt P25779); experiment: Inhibition of Trypanosoma cruzi cruzipain using Z-Phe-Arg-AMC as substrate at 10 uM incubated for 5 mins prior to substrate addition measured after 10 mins by fluorescence assay
Cruzipain [6] = molecular target: T1, Cruzipain (Trypanosoma cruzi, UniProt P25779); experiment: Non-competitive inhibition of Trypanosoma cruzi cruzipain using Z-Phe-Arg-AMC as substrate assessed as function of velocity after 30 mins
T1 sequence (P25779 whole entry): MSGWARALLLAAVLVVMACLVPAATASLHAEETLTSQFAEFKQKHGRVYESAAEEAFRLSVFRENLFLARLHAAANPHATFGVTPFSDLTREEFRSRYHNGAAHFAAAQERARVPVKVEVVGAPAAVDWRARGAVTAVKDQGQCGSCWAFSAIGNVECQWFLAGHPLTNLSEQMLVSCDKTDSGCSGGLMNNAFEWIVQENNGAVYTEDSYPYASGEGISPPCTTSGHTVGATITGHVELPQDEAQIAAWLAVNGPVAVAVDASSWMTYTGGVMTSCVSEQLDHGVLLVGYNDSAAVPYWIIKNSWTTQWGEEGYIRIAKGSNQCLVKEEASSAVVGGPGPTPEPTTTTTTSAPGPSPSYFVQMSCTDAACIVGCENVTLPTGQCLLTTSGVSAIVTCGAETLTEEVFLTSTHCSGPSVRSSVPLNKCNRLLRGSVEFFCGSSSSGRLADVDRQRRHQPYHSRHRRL

[7] = Cytotoxicity against African green monkey Vero cells after 72 hrs by resazurin assay; format: cell-based; details: chlorocebus sabaeus
[8] = molecular target: Cruzipain (Trypanosoma cruzi) (UniProt P25779); experiment: Slow binding inhibition of Trypanosoma cruzi cruzipain using Z-Phe-Arg-AMC as substrate at 5 to 500 nM after 30 mins by fluorescence assay
Trypanosoma cruzi [9] = experiment: Antitrypanosomal activity against amastigote stage of Trypanosoma cruzi Dm28c infected in African green monkey Vero cells assessed as growth inhibition at 30 uM incubated 8 hrs post infection measured after 24 hrs relative to control; format: functional; details: read-out: GI
Trypanosoma cruzi [10] = experiment: Antitrypanosomal activity against amastigote stage of Trypanosoma cruzi Dm28c infected in African green monkey Vero cells assessed as growth inhibition at 1 uM incubated 8 hrs post infection measured after 24 hrs relative to control; format: functional; details: read-out: GI
Trypanosoma cruzi [11] = experiment: Antitrypanosomal activity against amastigote stage of Trypanosoma cruzi Dm28c infected in African green monkey Vero cells assessed as growth inhibition at 15 uM incubated 8 hrs post infection measured after 24 hrs relative to control; format: functional; details: read-out: GI
Cruzipain [12] = molecular target: T1, Cruzipain; experiment: Non-competitive inhibition of Trypanosoma cruzi cruzipain using Z-Phe-Arg-AMC as substrate assessed as function of Vmaxapp after 30 mins
Trypanosoma cruzi [13] = experiment: Antitrypanosomal activity against amastigote stage of Trypanosoma cruzi Dm28c infected in African green monkey Vero cells assessed as growth inhibition at IC50 incubated 8 hrs post infection measured after 24 hrs relative to control; format: functional
Trypanosoma cruzi [14] = experiment: Antitrypanosomal activity against amastigote stage of Trypanosoma cruzi Dm28c infected in African green monkey Vero cells assessed as growth inhibition at 4 times IC50 incubated 8 hrs post infection measured after 24 hrs relative to control; format: functional
Trypanosoma cruzi [15] = experiment: Antitrypanosomal activity against amastigote stage of Trypanosoma cruzi Dm28c infected in African green monkey Vero cells assessed as growth inhibition at 2 times IC50 incubated 8 hrs post infection measured after 24 hrs relative to control; format: functional
[16] = molecular target: Cruzipain (Trypanosoma cruzi) (UniProt P25779); experiment: Reversible inhibition of Trypanosoma cruzi cruzipain at 10 uM pre-incubated for 30 mins

With `NC(=[Se])NN=C(c1cccc(Br)c1)c1cccc(Br)c1` the inhibition [1] was 98%, the inhibition [2] was 90% and the “Ratio CC50/IC50” value [3] was 14. The IC50 (Trypanosoma cruzi [4]) was 5.2 µM, the inhibition [5] was 99% and the Ki (Cruzipain [6]) was 0.0133 µM. For the same molecule, the CC50 at 72 h [7] was 71.2 µM and the inhibition [8] was “Active”.

With `O=C(Cn1ccnc1[N+](=O)[O-])NCc1ccccc1` [BENZNIDAZOLE] the “Ratio CC50/IC50” value [3] was 25, the inhibition of growth at 30 µM (Trypanosoma cruzi [9]) was 85% and the IC50 (Trypanosoma cruzi [4]) was 12.5 µM. It also gave an inhibition of growth at 1 µM (Trypanosoma cruzi [10]) of 27%, an inhibition of growth at 15 µM (Trypanosoma cruzi [11]) of 77% and a CC50 at 72 h [7] of 309 µM.

In the case of `NC(=[Se])N/N=C/c1cccc(Br)c1`, the inhibition [1] is reported as 93%, the inhibition [2] is reported as 40% and the “Ratio CC50/IC50” value [3] is reported as 29. It also gave an IC50 (Trypanosoma cruzi [4]) of 5.9 µM, an inhibition [5] of 93% and a CC50 at 72 h [7] of 172 µM.

For `CCCC/C(=N/NC(N)=[Se])c1ccc(Cl)c(Cl)c1`, the inhibition [1] was 98%, the inhibition [2] was 95% and the “Ratio CC50/IC50” value [3] was 25. It also gave a Ki (Cruzipain [12]) of 0.0064 µM, an IC50 (Trypanosoma cruzi [4]) of 3.2 µM and an inhibition [5] of 100%. The “growth inhibition (GI)” value (Trypanosoma cruzi [13]) was 66%, the Ki (Cruzipain [6]) was 0.0037 µM and the “growth inhibition (GI)” value (Trypanosoma cruzi [14]) was 74%. For the same molecule, the “growth inhibition (GI)” value (Trypanosoma cruzi [15]) was 73%, the CC50 at 72 h [7] was 81.8 µM and the inhibition [8] was “Active”.

With `C/C(=N/NC(N)=S)c1cccc(Br)c1` the inhibition [1] was 79%, the inhibition [2] was 24% and the inhibition [5] was 80%. For the same molecule, the Ki (Cruzipain [6]) was 0.142 µM.

For `C/C(=N\NC(N)=[Se])c1cccc(Br)c1`, the inhibition [1] was 87%, the inhibition [2] was 81% and the “Ratio CC50/IC50” value [3] was 39. For the same molecule, the IC50 (Trypanosoma cruzi [4]) was 1.2 µM, the inhibition [5] was 98% and the “growth inhibition (GI)” value (Trypanosoma cruzi [13]) was 76%. For the same molecule, the Ki (Cruzipain [6]) was 0.0297 µM, the “growth inhibition (GI)” value (Trypanosoma cruzi [14]) was 78% and the inhibition [16] was “Active”. The “growth inhibition (GI)” value (Trypanosoma cruzi [15]) was 77%, the CC50 at 72 h [7] was 46.4 µM and the inhibition [8] was “Active”.

With `NC(=[Se])N/N=C/c1cccc(C(F)(F)F)c1` the inhibition [1] was 88%, the inhibition [2] was 24% and the “Ratio CC50/IC50” value [3] was 44. The IC50 (Trypanosoma cruzi [4]) was 3.8 µM, the inhibition [5] was 91% and the “growth inhibition (GI)” value (Trypanosoma cruzi [13]) was 34%. The “growth inhibition (GI)” value (Trypanosoma cruzi [14]) was 74%, the “growth inhibition (GI)” value (Trypanosoma cruzi [15]) was 70% and the CC50 at 72 h [7] was 167 µM.

For `NC(=[Se])N/N=C/c1ccc(Cl)c(Cl)c1`, the inhibition [1] was 96%, the inhibition [2] was 57% and the “Ratio CC50/IC50” value [3] was 41. For the same molecule, the IC50 (Trypanosoma cruzi [4]) was 2.3 µM, the inhibition [5] was 99% and the “growth inhibition (GI)” value (Trypanosoma cruzi [13]) was 63%. The “growth inhibition (GI)” value (Trypanosoma cruzi [14]) was 72%, the “growth inhibition (GI)” value (Trypanosoma cruzi [15]) was 69% and the CC50 at 72 h [7] was 95.1 µM.
